Measured values reported in article PMC9958325 (Nature Communications, 2023).
Values joined by “and” are separate entries in the source; they are usually repeats but may differ in a detail not shown here. Equal entries are not always repeated. Where two headings read alike, the source gives them in different places.

Columns and labels:
[1] = Pharmacokinetic study in PXB-mice (human liver-chimeric)
[2] = test system: SARS-CoV-2 TKYX00012/ο BA.1; test: microbe, parasite or virus in culture; type: cell-based
[3] = mouse, in vivo
SARS-CoV-2^WK-521 = test: microbe, parasite or virus in culture; type: cell-based; design: EC95, individual assays / EC95, Average: unit: µM
[4] = test system: SARS-CoV-2^WK521 in HeLa-ACE2-TMPRSS2 cells; test: Antiviral assay, HeLa-ACE2-TMPRSS2 cells, WK521; type: cell-based
HeLa-ACE2-TMPRSS2 cells = test: Intracellular concentrations of compounds (LC/MS), HeLa-ACE2-TMPRSS2 cells; conditions: 6 h; for Intracellular amount, individual: listed as TKB-0245

For `CC(C)(C)[C@H](NC(=O)C(F)(F)F)C(=O)N1C[C@H]2[C@@H]([C@H]1C(=O)N[C@@H](C[C@@H]1CCNC1=O)C(=O)c1nc3c(F)cccc3s1)C2(C)C` [TKB245], the Plasma concentration ([1]; PXB-mice, p.o. 10 mg/kg, 60 min, individual mice, listed as TKB0245, 10 mg/kg) was 1278.1 ng/mL and 1343.7 ng/mL and 1794.3 ng/mL, the Plasma concentration ([1]; PXB-mice, p.o. 10 mg/kg, 1 hr, individual mice, listed as TKB0245, 10 mg/kg) was 1280 ng/mL and 1340 ng/mL and 1790 ng/mL and the Plasma concentration ([1]; PXB-mice, p.o. 10 mg/kg, 240 min, individual mice, listed as TKB0245, 10 mg/kg) was 152.9 ng/mL and 98.8 ng/mL and 128.8 ng/mL. For the same molecule, the Plasma concentration ([1]; PXB-mice, p.o. 10 mg/kg, 4 hr, individual mice, listed as TKB0245, 10 mg/kg) was 150 ng/mL and 100 ng/mL and 130 ng/mL, the Plasma concentration ([1]; PXB-mice, p.o. 10 mg/kg, 480 min, individual mice, listed as TKB0245, 10 mg/kg) was 41.6 ng/mL and 34.4 ng/mL and 32.8 ng/mL and the Plasma concentration ([1]; PXB-mice, p.o. 10 mg/kg, 8 hr, individual mice, listed as TKB0245, 10 mg/kg) was 0.04 µg/ml and 0.03 µg/ml (2×). The Plasma concentration ([1]; PXB-mice, p.o. 10 mg/kg, 1440 min, individual mice, listed as TKB0245, 10 mg/kg) was 26 ng/mL and 21.9 ng/mL and 27.9 ng/mL, the Plasma concentration ([1]; PXB-mice, p.o. 10 mg/kg, 24 hr, individual mice, listed as TKB0245, 10 mg/kg) was 0.03 µg/ml (2×) and 0.02 µg/ml and the Plasma concentration ([1]; i.v., 10 min, individual animals (3 per time point), LC/MS/MS, listed as TKB0245) was 8436.54 ng/mL and 8433.45 ng/mL and 10625.21 ng/mL. The Plasma concentration ([1]; i.v., 60 min, individual animals (3 per time point), LC/MS/MS, listed as TKB0245) was 2816.02 ng/mL and 2507.33 ng/mL and 3228.12 ng/mL, the Plasma concentration ([1]; i.v., 240 min, individual animals (3 per time point), LC/MS/MS, listed as TKB0245) was 47.02 ng/mL and 52.34 ng/mL and 93.04 ng/mL and the Plasma concentration ([1]; i.v., 480 min, individual animals (3 per time point), LC/MS/MS, listed as TKB0245) was 10.40 ng/mL and 14.76 ng/mL and 18.04 ng/mL. The Plasma concentration ([1]; i.v., 1440 min, individual animals (3 per time point), LC/MS/MS, listed as TKB0245) was 13.63 ng/mL and 11.63 ng/mL and 10.43 ng/mL, the “Oral F” value ([1]; male PXB-mouse 10 mg/kg i.v. and p.o., dose-normalized AUC ratio, 10 mg/kg) was 47.7% and 48% and 48¶ % and the Plasma concentration ([1]; p.o., 10 min, individual animals (3 per time point), LC/MS/MS, listed as TKB0245) was 914.50 ng/mL and 1553.11 ng/mL and 2872.30 ng/mL. The Plasma concentration ([1]; p.o., 60 min, individual animals (3 per time point), LC/MS/MS, listed as TKB0245) was 1278.12 ng/mL and 1343.67 ng/mL and 1794.27 ng/mL, the Plasma concentration ([1]; p.o., 240 min, individual animals (3 per time point), LC/MS/MS, listed as TKB0245) was 152.94 ng/mL and 98.79 ng/mL and 128.84 ng/mL and the Plasma concentration ([1]; p.o., 480 min, individual animals (3 per time point), LC/MS/MS, listed as TKB0245) was 41.61 ng/mL and 34.39 ng/mL and 32.81 ng/mL. For the same molecule, the Plasma concentration ([1]; p.o., 1440 min, individual animals (3 per time point), LC/MS/MS, listed as TKB0245) was 25.98 ng/mL and 21.91 ng/mL and 27.88 ng/mL, the EC50 ([2]; read-out: EC50 ο BA1, Average) was 13.7 nM and the EC50 ([2]; read-out: EC50 ο BA1, individual assays) was 10 nM and 7 nM and 24.2 nM. For the same molecule, the “Body weights and survival rates” value [3] was “no significant changes were recorded”, the “EC95, Average” value (SARS-CoV-2^WK-521) was 0.53 and the “EC95, individual assays” value (SARS-CoV-2^WK-521) was 0.59 and 0.09 and 0.55 and 0.89. For the same molecule, the “SARS-CoV2 RNA VeroE6 cell-based assay EC95” value (SARS-CoV-2^WK-521) was 0.53 µM and 0.53 ± 0.33 µM, the EC50 (SARS-CoV-2^WK-521; read-out: EC50, Average) was 31.2 nM and the EC50 (SARS-CoV-2^WK-521; read-out: EC50, VeroE6 + 2 µM CP100356) was 1 ± 1 nM. The EC50 (SARS-CoV-2^WK-521; read-out: EC50, VeroE6 with CP100356, Average) was 1.56 nM, the EC50 (SARS-CoV-2^WK-521; read-out: EC50, VeroE6 with CP100356, individual assays) was 1.4 nM and 2.37 nM and 0.9 nM and the EC50 (SARS-CoV-2^WK-521; read-out: EC50, individual assays) was 40 nM and 20 nM and 50 nM and 15 nM. The EC50 (SARS-CoV-2^WK-521; read-out: SARS-CoV2 RNA VeroE6 cell-based assay EC50) was 30 ± 20 nM, the EC50 ([4]; SARS-CoV-2^WK521, read-out: EC50, HeLa-ACE2-TMPRSS2) was 21 ± 8 nM and the EC50 ([4]; source data, listed as TKB0245, read-out: EC50, HeLa-AEC2-TMPRSS2, individual assays) was 14 nM and 30 nM and 20 nM. The EC50 ([4]; source data, read-out: EC50, HeLa-AEC2-TMPRSS2, Average) was 21.3 nM, the “Intracellular amount, avg” value (HeLa-ACE2-TMPRSS2 cells; Hela ACE2 TMPRSS2, 10uM) was 0.603 pmol(total) and the “Intracellular amount, individual” value (HeLa-ACE2-TMPRSS2 cells; Hela ACE2 TMPRSS2, 10uM) was 0.6360 pmol(total) and 0.5701 pmol(total). The “Intracellular amount, avg” value (HeLa-ACE2-TMPRSS2 cells; Hela ACE2 TMPRSS2, 50uM) was 4.167 pmol(total), the “Intracellular amount, individual” value (HeLa-ACE2-TMPRSS2 cells; Hela ACE2 TMPRSS2, 50uM) was 4.585 pmol(total) and 3.749 pmol(total) and the “Intracellular amount, avg” value (HeLa-ACE2-TMPRSS2 cells; Hela ACE2 TMPRSS2, 100uM) was 8.85 pmol(total). For the same molecule, the “Intracellular amount, individual” value (HeLa-ACE2-TMPRSS2 cells; Hela ACE2 TMPRSS2, 100uM) was 8.312 pmol(total) and 9.388 pmol(total).
